# Columns and labels:
# [1] = target: T1, FSH receptor (Homo sapiens, UniProt P23945); assay: FSH Receptor Radioligand Membrane Binding Standard Pharmacological Test Procedure; set-up: expressed in transfected cells; details: [125I]FSH binding to membranes of CHO cells stably transfected with the human FSH receptor
# T1 sequence (P23945 18-695): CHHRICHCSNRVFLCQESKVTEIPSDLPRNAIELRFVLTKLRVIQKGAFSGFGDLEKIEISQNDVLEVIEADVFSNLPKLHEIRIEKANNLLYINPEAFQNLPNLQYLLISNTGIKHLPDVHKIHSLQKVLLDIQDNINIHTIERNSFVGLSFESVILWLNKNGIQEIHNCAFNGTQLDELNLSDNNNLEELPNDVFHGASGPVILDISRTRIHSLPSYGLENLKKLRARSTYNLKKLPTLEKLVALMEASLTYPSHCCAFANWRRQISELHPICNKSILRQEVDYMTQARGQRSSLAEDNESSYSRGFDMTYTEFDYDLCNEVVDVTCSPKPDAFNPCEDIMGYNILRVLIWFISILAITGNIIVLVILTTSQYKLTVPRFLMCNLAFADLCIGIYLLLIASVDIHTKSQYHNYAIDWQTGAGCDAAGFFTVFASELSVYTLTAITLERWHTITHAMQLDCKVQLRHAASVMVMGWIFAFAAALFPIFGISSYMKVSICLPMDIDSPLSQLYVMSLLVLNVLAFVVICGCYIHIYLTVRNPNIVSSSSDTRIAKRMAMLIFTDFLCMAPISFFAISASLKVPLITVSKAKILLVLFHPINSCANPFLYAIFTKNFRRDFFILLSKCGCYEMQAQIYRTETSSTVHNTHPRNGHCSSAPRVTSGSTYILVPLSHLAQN
# Summary of the method: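 Membranes from CHO cells stably expressing human FSH receptor; compounds pre-incubated 15 min at room temperature, then [125I]FSH added (diluted to 200 pM before addition) for 2 h at room temperature in pH 7.2 Tris buffer with protease inhibitors and BSA. Bound radioactivity after filtration counted by gamma counter; non-specific binding defined with unlabelled human FSH.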
# [2] = target: T1, FSH receptor; assay: In Vitro Bio-test Procedure of Agonists and Antagonists to the FSH Receptor (cAMP accumulation in CHO-3D2 cells); format: cell-based; set-up: expressed in transfected cells; host or cells: CHO-3D2 cells
# Protocol: In Vitro Bio-test Procedure of Agonists and Antagonists to the FSH Receptor
# The compounds were subsequently diluted in sterile procedure medium (Optimem (Gibco/BRL, Grand Island, N.Y.)/0.1% BSA) prior to use in the bio-procedure.
# Preparation of CHO-3D2 Cells; CHO-3D2 cells were plated into 96-well Nunc tissue culture plates at a density of 30,000 cells/well in DMEM/F12 medium (Gibco/BRL, Grand Island, N.Y.) supplemented with 5% Fetal Bovine Serum (Hyclone, Fetal Clone II), 2 mM L-glutamine and penicillin/streptomycin (100 U/mL). Cells were plated one day prior to performing the bio-procedure.
# Procedure: On the day of procedure, the wells were washed two times with 100 ul/well of pre-warmed (37 deg C.) procedure medium. After aspirating the second wash, an additional 100 ul of procedure medium was added to each well and the cells pre-incubated for 30-45 minutes at 37 deg C. In a humidified incubator with 5%CO2/95% air. The cells were then challenged with varying dilutions of the test substance(s) in a 50 ul total incubation volume in procedure medium for 30 minutes at 37 deg C. in the humidified incubator. The challenge was terminated by the addition of 50 ul of 0.2 N HCl to each well. CAMP accumulation in the medium was measured by radioimmunoassay.
# Test Groups: In the 96-well format, the plate is organized into 12 columns each containing 8 rows of wells. The plate was split in half to test a single compound in both agonist and antagonist mode on the same plate.
# For agonist mode, compounds were tested using 5 different concentrations in a dose-response paradigm using one column as a control (challenge medium alone) in agonist mode.
# The 96-well format allowed for the capability to test 4 columns of compound, using one of the remaining columns for negative control (challenge medium alone) and the other remaining column for ampositive control (ED20 of FSH alone).
# The doses chosen to test each compound were extrapolated from the initial screening process (receptor binding data). Along with the test compounds, FSH was run in agonist mode using doses ranging from 0.1 ng/mL-1000 ng/mL as a postive control. Cytotoxicity of the compounds were screened by treating cells with the highest concentration of each compound used in the cAMP procedure for 30 minutes followed by washing of the cells 2 times with 100 ul PBS. The cells were then incubated for 5 min at 37 deg C. in the presence of 50 ug/mL Fluorescein diacetate and 20 ug/mL Propidium iodide in 100 ul PBS. The cells were washed two times with 100 ul PBS followed by examination of the cells under a fluorescence microscope using a 490 nm filter. Viable cells stained green throughout, while dead cells had red fluorescent nuclei.
# Analysis of Results: cAMP accumulation was expressed as fmol/mL. […] Data were analyzed statistically by analysis of variance and significant differences between treatments and control determined by Dunnett's test. In antagonist mode, a Duncan's test was used.
# Reference Compounds: Test compounds were compared to the effect of purified or recombinant human FSH.
IC50 [1],IC50 [2],Structure (SMILES)
2 µM,2.1 µM,"O=C(CS(=O)(=O)c1ccc(C(=O)Nc2ccc(/C=C/c3ccc(NC(=O)c4ccc(S(=O)(=O)CC(=O)NCCO)cc4)cc3S(=O)(=O)O)c(S(=O)(=O)O)c2)cc1)NCCO [Example 37a, 5-[[4-[[2-[(2-Hydroxyethyl)amino]-2-oxoethyl]sulfonyl]benzoyl]amino]-2-[(E)-2-[4-[[4-[[2-[(2-hydroxyethyl)amino]-2-oxoethyl]sulfonyl]benzoyl]amino]-2-sulfo-phenyl]ethenyl]benzenesulfonic Acid]"
2.9 µM,1.2 µM,"NC(=O)CS(=O)(=O)c1ccc(C(=O)Nc2ccc(/C=C/c3ccc(NC(=O)c4ccc(S(=O)(=O)CC(N)=O)cc4)cc3S(=O)(=O)O)c(S(=O)(=O)O)c2)cc1 [Example 37b, 5-[[4-[(2-Amino-2-oxoethyl)sulfonyl]benzoyl]amino]-2-[(E)-2-[4-[[4-[(2-amino-2-oxoethyl)sulfonyl]benzoyl]amino]-2-sulfophenyl]ethenyl]-benzenesulfonic Acid]"
6.9 µM,2.7 µM,"COCCOc1ccc(C(=O)Nc2ccc(/C=C/c3ccc(NC(=O)c4ccc(OC)c(S(=O)(=O)N5CCOCC5)c4)cc3S(=O)(=O)O)c(S(=O)(=O)O)c2)cc1 [Example 42, 5-[[4-(2-Methoxyethoxy)benzoyl]amino]-2-[(E)-2-[4-[[4-methoxy-3-(4-morpholinylsulfonyl)benzoyl]amino]-2-sulfo-phenyl]ethenyl]benzenesulfonic Acid]"
17 µM,28 µM,COc1ccc(C(=O)Nc2ccc(CCc3ccc(NC(=O)c4ccc(OC)c(S(=O)(=O)N5CCCCC5)c4)cc3S(=O)(=O)O)c(S(=O)(=O)O)c2)cc1S(=O)(=O)N1CCCCC1 [Example 43b]
12 µM,13 µM,O=C(Nc1ccc(CCc2ccc(NC(=O)c3cccc(S(=O)(=O)N4CCOCC4)c3)cc2S(=O)(=O)O)c(S(=O)(=O)O)c1)c1cccc(S(=O)(=O)N2CCOCC2)c1 [Example 43d]
5 µM,6.4 µM,"COCCOc1ccc(C(=O)Nc2ccc(CCc3ccc(NC(=O)c4ccc(OCCOC)c(S(=O)(=O)N5CCOCC5)c4)cc3S(=O)(=O)O)c(S(=O)(=O)O)c2)cc1S(=O)(=O)N1CCOCC1 [Example 43f, 2,2′-(1,2-Ethanediyl)bis[5-[[4-(2-methoxyethoxy)-3-(4-morpholinylsulfony)benzoyl]amino]benzenesulfonc Acid]]"
7 µM,12 µM,"COc1ccc(C(=O)Nc2ccc(CCc3ccc(NC(=O)c4ccc(OC)c(S(=O)(=O)N5CCCC5)c4)cc3S(=O)(=O)O)c(S(=O)(=O)O)c2)cc1S(=O)(=O)N1CCCC1 [Example 43g, 2,2′-(1,2-Ethanediyl)bis[5-[[4-methoxy-3-(1-pyrrolidinylsulfonyl)benzoyl]amino]benzenesulfonic Acid]]"
12 µM,12 µM,"COCCOc1ccc(C(=O)Nc2ccc(CCc3ccc(NC(=O)c4ccc(OC)c(S(=O)(=O)N5CCOCC5)c4)cc3S(=O)(=O)O)c(S(=O)(=O)O)c2)cc1 [Example 43h, 5-[[4-(2-Methoxyethoxy)benzoyl]amino]-2-[2-[4-[[4-methoxy-3-(4-morpholinylsulfonyl)benzoyl]amino]-2-sulfophenyl]ethyl]benzenesulfonic Acid]"

# Reference: patent publication US6355633B1, “Aryl sulfonic acids and derivatives as FSH antagonists” (American Home Products Corporation, priority 1999, dated 2002)
